Assay results published in patent publication US5091398A, “Substituted 1,2,3,4-oxatriazolium-5-olates, a process for their preparation and their use” (Cassella Aktiengellschaft, priority 1989, dated 1992).
Like-named read-outs stand apart in the source and are kept apart here.

Tested on: pulmonary artery of the guinea pig
Assay: relaxing effect on spiral strips of the pulmonary artery of the guinea pig (modified method of Godfraind and Kaba and of Schuman et al.)
Details: strips depolarised with 40 mmol/l potassium in calcium-free Tyrode solution, contraction by 0.5 mmol/l CaCl2, cumulative addition, mean value of 4 to 6 vessel strips, read-out: IC50 (concentration of the test substance which inhibits the contraction by 50%) (converted)
Description: The pharmacological effect of the compounds of the formula I was determined according to a modified method of Godfraind and Kaba (Arch. Int. Phamacodyn. Ther. 196, (Suppl) 35 to 49, 1972) and of Schuman et al. (Naunyn-Schmiedeberg's Arch. Phamacol. 289, 409 to 418, 1975). Spiral strips of the pulmonary artery of the guinea pig are depolarised with 40 mmol/1 of potassium after equilibration in calcium-free Tyrode solution. An addition of 0.5 mmol/1 of CaCl2 then induces a contraction. The relaxing effect of the test substance is determined by cumulative addition in 1/2 log 10 stepped concentrations. The concentration of the test substance which inhibits the contraction by 50% (=IC50, mol/1) is determined from the concentration-effect curve (abscissa: -log mol/1 of test substance, ordinate: percentage inhibition of the maximum contraction, mean value of 4 to 6 vessel strips).

| IC50 (Cavia porcellus) [nM] | IC50 [nM] | Structure (SMILES) |
| --- | --- | --- |
| 3000 | – | CCC(C)(C)[n+]1noc([O-])n1 [Example 1, 3-tert-Pentyl-1,2,3,4-oxatriazolium-5-olate] |
| 60000 | – | CC(C)(C)NC(=O)C(C)(C)[n+]1noc([O-])n1 [Example 4, 3-(1-tert-Butylaminocarbonyl-1-methylethyl)-1,2,3,4-oxatriazolium-5-olate] |
| 600 | – | CCCC(C)(C)[n+]1noc([O-])n1 [Example 5, 3-(2-Methylpent-2-yl)-1,2,3,4-oxatriazolium-5-olate] |
| – | > 100000 | CCOC(=O)[N-]c1cn(N2CCOCC2)n[o+]1 [Molsidomine, N-ethoxycarbonyl-3-morpholinosydnoneimine, reference compound] |
